Measured values: patent publication US8952024B2, “Herbicidal pyrimidone derivatives” (E I du Pont de Nemours and Company, priority 2009, dated 2015)

Experiments:
Assay type in all cases: in vivo
[1] = tested on: rice (Oryza sativa); experiment: Test B flooded paddy test; conditions: for Plant response rating, Flood, Rice: 250 g ai/ha, flooded paddy test, visual rating on 0 to 100 scale (0 no effect, 100 complete control) after 13 to 15 days; for Plant response rating, Rice: Flood (flooded paddy test), 13 to 15 days
Summary of the method: (§1)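 Plants were grown to the 2-leaf stage, then pots were flooded to 3 cm above the soil and compounds were applied directly into the paddy water. That depth was held throughout. After 13 to 15 days in a greenhouse, injury was visually rated against controls on a 0–100 scale.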

[2] = tested on: ducksalad (Heteranthera limosa); experiment: Test B flooded paddy test; conditions: for Plant response rating, Flood, Ducksalad: 250 g ai/ha, flooded paddy test, visual rating on 0 to 100 scale (0 no effect, 100 complete control) after 13 to 15 days; for Plant response rating, Ducksalad: Flood (flooded paddy test), 13 to 15 days
Summary of the method: as §1

[3] = tested on: barnyardgrass (Echinochloa crus-galli); experiment: Test B flooded paddy test; conditions: for Plant response rating, Flood, Barnyardgrass: 250 g ai/ha, flooded paddy test, visual rating on 0 to 100 scale (0 no effect, 100 complete control) after 13 to 15 days; for Plant response rating, Barnyardgrass: Flood (flooded paddy test), 13 to 15 days
Summary of the method: as §1

[4] = tested on: umbrella sedge (Cyperus difformis); experiment: Test B flooded paddy test; conditions: for Plant response rating, Flood, Sedge, Umbrella: 250 g ai/ha, flooded paddy test, visual rating on 0 to 100 scale (0 no effect, 100 complete control) after 13 to 15 days; for Plant response rating, Sedge, Umbrella: Flood (flooded paddy test), 13 to 15 days
Summary of the method: as §1

[5] = tested on: wheat (Triticum aestivum); experiment: Test A pre-/postemergence plant response
Summary of the method: (§2)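 Plants grown from seed in a loam soil and sand mix received test compounds both as a preemergence soil spray and, at the same time, as a postemergence spray at the one- to two-leaf stage. Injury was judged visually against untreated controls roughly ten days later, 0 meaning no effect and 100 complete control.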

[6] = tested on: morningglory (Ipomoea spp.); experiment: Test A pre-/postemergence plant response
Summary of the method: as §2

[7] = tested on: giant foxtail (Setaria faberii); experiment: Test A pre-/postemergence plant response
Summary of the method: as §2

[8] = tested on: pigweed (Amaranthus retroflexus); experiment: Test A pre-/postemergence plant response
Summary of the method: as §2

[9] = tested on: velvetleaf (Abutilon theophrasti); experiment: Test A pre-/postemergence plant response
Summary of the method: as §2

[10] = tested on: large crabgrass (Digitaria sanguinalis); experiment: Test A pre-/postemergence plant response
Summary of the method: as §2

[11] = tested on: corn (Zea mays); experiment: Test A pre-/postemergence plant response
Summary of the method: as §2

[12] = tested on: barnyardgrass (Echinochloa crus-galli); experiment: Test A pre-/postemergence plant response
Summary of the method: as §2

[13] = 62 g ai/ha, scale of 0 to 100 where 0 is no effect and 100 is complete control
[14] = Postemergence, 125 g ai/ha, 0 to 100 scale where 0 is no effect and 100 is complete control
[15] = Postemergence, 500 g ai/ha, 0 to 100 scale, 0 = no effect, 100 = complete control, approx. ten days
[16] = Preemergence, 125 g ai/ha, 0 to 100 scale, 0 = no effect, 100 = complete control
[17] = Preemergence, 500 g ai/ha, visual injury, 0 to 100 scale (0 no effect, 100 complete control), approx. ten days
[18] = 125 g ai/ha, scale 0 to 100, 0 is no effect, 100 is complete control
[19] = Flood, 31 g ai/ha, scale 0 to 100 (0 no effect, 100 complete control)

Compound: CCCCn1c(CCC)ncc(C(=O)C2=C(O)CCCC2=O)c1=O [Compound 75]
- Plant response rating, Flood, Rice [1]: 45
- Plant response rating, Rice [1, 13]: 0
- Plant response rating, Flood, Ducksalad [2]: 50
- Plant response rating, Ducksalad [2, 13]: 30
- Plant response rating, Flood, Barnyardgrass [3]: 60
- Plant response rating, Barnyardgrass [3, 13]: 20
- Plant response rating, Flood, Sedge, Umbrella [4]: 50
- Plant response rating, Sedge, Umbrella [4, 13]: 0
- Plant response rating, Wheat [5, 14]: 0
- Plant response rating, Wheat [5, 15]: 50
- Plant response rating, Wheat [5, 16]: 0
- Plant response rating, Wheat [5, 17]: 0
- Plant response rating, Morningglory [6, 14]: 90
- Plant response rating, Morningglory [6, 15]: 100
- Plant response rating, Morningglory [6, 16]: 60
- Plant response rating, Morningglory [6, 17]: 90
- Plant response rating, Foxtail, Giant [7, 14]: 80
- Plant response rating, Foxtail, Giant [7, 15]: 90
- Plant response rating, Foxtail, Giant [7, 16]: 50
- Plant response rating, Foxtail, Giant [7, 17]: 70
- Plant response rating, Pigweed [8, 14]: 100
- Plant response rating, Pigweed [8, 15]: 100
- Plant response rating, Pigweed [8, 16]: 100
- Plant response rating, Pigweed [8, 17]: 100
- Plant response rating, Velvetleaf [9, 14]: 100
- Plant response rating, Velvetleaf [9, 15]: 100
- Plant response rating, Velvetleaf [9, 16]: 90
- Plant response rating, Velvetleaf [9, 17]: 100
- Plant response rating, Crabgrass, Large [10, 14]: 90
- Plant response rating, Crabgrass, Large [10, 15]: 90
- Plant response rating, Crabgrass, Large [10, 16]: 90
- Plant response rating, Crabgrass, Large [10, 17]: 100
- Plant response rating, Corn [11, 14]: 0
- Plant response rating, Corn [11, 15]: 50
- Plant response rating, Corn [11, 16]: 0
- Plant response rating, Corn [11, 17]: 0
- Plant response rating, Barnyardgrass [12, 14]: 80
- Plant response rating, Barnyardgrass [12, 15]: 90
- Plant response rating, Barnyardgrass [12, 16]: 40
- Plant response rating, Barnyardgrass [12, 17]: 80

Compound: CCCc1ncc(C(=O)C2=C(O)CCCC2=O)c(=O)n1-c1cccc(C)c1 [Compound 79]
- Plant response rating, Flood, Rice [1]: 20
- Plant response rating, Rice [1, 13]: 0
- Plant response rating, Rice [1, 18]: 15
- Rice plant response rating [1, 19]: 0
- Plant response rating, Flood, Ducksalad [2]: 40
- Plant response rating, Ducksalad [2, 13]: 0
- Plant response rating, Ducksalad [2, 18]: 15
- Ducksalad plant response rating [2, 19]: 0
- Plant response rating, Flood, Barnyardgrass [3]: 30
- Plant response rating, Barnyardgrass [3, 13]: 0
- Plant response rating, Barnyardgrass [3, 18]: 20
- Barnyardgrass plant response rating [3, 19]: 0
- Plant response rating, Flood, Sedge, Umbrella [4]: 30
- Plant response rating, Sedge, Umbrella [4, 13]: 0
- Plant response rating, Sedge, Umbrella [4, 18]: 0
- Sedge, Umbrella plant response rating [4, 19]: 0
- Plant response rating, Wheat [5, 14]: 0
- Plant response rating, Wheat [5, 15]: 50
- Plant response rating, Wheat [5, 16]: 0
- Plant response rating, Wheat [5, 17]: 30
- Plant response rating, Morningglory [6, 14]: 100
- Plant response rating, Morningglory [6, 15]: 100
- Plant response rating, Morningglory [6, 16]: 0
- Plant response rating, Morningglory [6, 17]: 50
- Plant response rating, Foxtail, Giant [7, 14]: 50
- Plant response rating, Foxtail, Giant [7, 15]: 80
- Plant response rating, Foxtail, Giant [7, 16]: 0
- Plant response rating, Foxtail, Giant [7, 17]: 50
- Plant response rating, Pigweed [8, 14]: 100
- Plant response rating, Pigweed [8, 15]: 100
- Plant response rating, Pigweed [8, 16]: 100
- Plant response rating, Pigweed [8, 17]: 100
- Plant response rating, Velvetleaf [9, 14]: 100
- Plant response rating, Velvetleaf [9, 15]: 100
- Plant response rating, Velvetleaf [9, 16]: 70
- Plant response rating, Velvetleaf [9, 17]: 100
- Plant response rating, Crabgrass, Large [10, 14]: 80
- Plant response rating, Crabgrass, Large [10, 15]: 90
- Plant response rating, Crabgrass, Large [10, 16]: 50
- Plant response rating, Crabgrass, Large [10, 17]: 100
- Plant response rating, Corn [11, 14]: 10
- Plant response rating, Corn [11, 15]: 60
- Plant response rating, Corn [11, 16]: 0
- Plant response rating, Corn [11, 17]: 0
- Plant response rating, Barnyardgrass [12, 14]: 80
- Plant response rating, Barnyardgrass [12, 15]: 90
- Plant response rating, Barnyardgrass [12, 16]: 0
- Plant response rating, Barnyardgrass [12, 17]: 70
